Measured values reported in patent publication US9074014B2 (Ipsen Pharma S.A.S., priority 2008, dated 2015).
Where a SMILES comes first, the peptide text is derived from it. Where no end group is shown, it is not given here. [ ]: non-standard residue; d: D form. The star is where a group is joined. NMeY = CN[C@@H](Cc1ccc(O)cc1)C(=O)O; Tic = O=C(O)[C@@H]1Cc2ccccc2CN1; ΔPro = O=C(O)[C@@H]1C=CCN1; Pip = O=C(O)[C@@H]1CCCCN1; Ac6c = NC1(C(=O)O)CCCCC1; Nle = CCCC[C@H](N)C(=O)O; X1 = CCCN1C(=O)CC(*)C1=O; Ac5c = NC1(C(=O)O)CCCC1; Aib = CC(C)(N)C(=O)O

Experiments:
[1] = Rat plasma half-life assay; type: in vitro ADME; conditions: rat plasma, 37° C., LC-MS; for half-life at 0.1 mg/ml: read-out: Rat Plasma T½ (converted)
Experimental: (§1) B. Human and Rat Plasma Half-Life Assay
(§2) 50 μL was removed at various times, like at 0, 1, 2, 3, 4, 8, 24, 32, 48, 56, 72 hours, mixed with 5 μL formic acid and 150 μL acetonitrile in a microcentrifuge tube, vertexed, and centrifuged for 10 minutes at 10K rpm. The supernatant was transferred to an injection vial and analyzed by LC-MS. The LC-MS system consisted of an API4000 mass spectrometer with an ESI probe. Positive ion mode and full scan detection were used. HPLC separation was carried out on a Luna 3μ C8 (2), 2×30 mm column with a gradient from 90% A to 90% B in 10 minutes at a flow rate of 0.3 ml/min. Buffer A was 1% formic acid in water and buffer B was 1% formic acid acetonitrile.

[2] = Human plasma half-life assay; type: in vitro ADME; conditions: human plasma, 37° C., LC-MS; for half-life at 0.1 mg/ml: read-out: Human Plasma T½ (converted)
Experimental: as §1, §2

CCCC[C@H](NC(=O)C(C)(C)NC(=O)[C@@H](NC(=O)[C@H](CO)NC(=O)[C@H](Cc1ccc(O)cc1)NC(=O)[C@H](CC(=O)O)NC(=O)[C@H](CO)NC(=O)[C@@H](NC(=O)[C@H](Cc1ccccc1)NC(=O)[C@@H](NC(=O)CNC(=O)[C@H](CCC(=O)O)NC(=O)C(C)(C)NC(=O)[C@@H](N)Cc1ccc(O)cc1)[C@@H](C)O)[C@@H](C)CC)[C@@H](C)CC)C(=O)N[C@@H](CC(=O)O)C(=O)N[C@@H](CCCCN)C(=O)N[C@H](C(=O)N[C@@H](Cc1c[nH]cn1)C(=O)N[C@@H](CCC(N)=O)C(=O)N[C@@H](CCC(N)=O)C(=O)N[C@@H](CC(=O)O)C(=O)N[C@@H](Cc1ccccc1)C(=O)N[C@H](C(=O)N[C@@H](CC(N)=O)C(=O)N[C@@H](Cc1c[nH]c2ccccc12)C(=O)N[C@@H](CC(C)C)C(=O)N[C@@H](CC(C)C)C(=O)N[C@@H](C)C(=O)N[C@@H](CCC(N)=O)C(=O)N[C@@H](CCCCN)C(N)=O)C(C)C)[C@@H](C)CC [Example 49, (Aib^2, 13, Nle^14)hGIP(1-30)-NH2] (H-Y[Aib]EGTFISDYSI[Aib][Nle]DKIHQQDFVNWLLAQK-NH2; N-terminus assumed)
Rat Plasma T½ [1]: 45.0 h | Human Plasma T½ [2]: >56 h

Y[Aib]EGTFISDY[Ac5c]IAMDKIHQQDFVNWLLAQKGKKNDWKHNITQ-OH [Example 53, (Aib^2, A5c^11)hGIP(1-42)-OH]
half-life at 0.1 mg/ml [1]: 51.7 h | half-life at 0.1 mg/ml [2]: 33.3 h

Y[Aib]EGTF[Ac6c]SDYSIA[Nle]DKIHQQDFVNWLLAQKGKKNDWKHNI[Aib]Q-OH [Example 25, (Aib^2, 41, A6c^7, Nle^14)hGIP(1-42)-OH]
half-life at 0.1 mg/ml [1]: 8.4 h | half-life at 0.1 mg/ml [2]: > 48 h

CC[C@H](C)[C@H](NC(=O)[C@H](CO)NC(=O)[C@H](Cc1ccc(O)cc1)NC(=O)C(C)(C)NC(=O)[C@H](CO)NC(=O)[C@@H](NC(=O)[C@H](Cc1ccccc1)NC(=O)[C@@H](NC(=O)CNC(=O)[C@H](CCC(=O)O)NC(=O)C(C)(C)NC(=O)[C@@H](N)Cc1ccc(O)cc1)[C@@H](C)O)[C@@H](C)CC)C(=O)N[C@@H](C)C(=O)N[C@@H](CCSC)C(=O)N[C@@H](CC(=O)O)C(=O)N[C@@H](CCCCN)C(=O)N[C@H](C(=O)N[C@@H](Cc1c[nH]cn1)C(=O)N[C@@H](CCC(N)=O)C(=O)N[C@@H](CCC(N)=O)C(=O)N[C@@H](CC(=O)O)C(=O)N[C@@H](Cc1ccccc1)C(=O)N[C@H](C(=O)N[C@@H](CC(N)=O)C(=O)N[C@@H](Cc1c[nH]c2ccccc12)C(=O)N[C@@H](CC(C)C)C(=O)N[C@@H](CC(C)C)C(=O)N[C@@H](C)C(=O)N[C@@H](CCC(N)=O)C(=O)N[C@@H](CCCCN)C(N)=O)C(C)C)[C@@H](C)CC [Example 18, (Aib^2, 9)hGIP(1-30)-NH2] (H-Y[Aib]EGTFIS[Aib]YSIAMDKIHQQDFVNWLLAQK-NH2; N-terminus assumed)
half-life at 0.1 mg/ml [1]: 44.4 h | half-life at 0.1 mg/ml [2]: 11.3 h

Y[dA]EGTFISDY[Ac5c]IAMDKIHQQDFVNWLLAQKGKKNDWKHN[Ac5c]TQ-OH [Example 104, (D-Ala^2, A5c^11,40)hGIP(1-42)-OH]
half-life at 0.1 mg/ml [1]: 14.8 h | half-life at 0.1 mg/ml [2]: 20.2 h

CCCC[C@H](NC(=O)[C@H](C)NC(=O)[C@@H](NC(=O)C(C)(C)NC(=O)[C@H](Cc1ccc(O)cc1)NC(=O)[C@H](CC(=O)O)NC(=O)[C@H](CO)NC(=O)[C@@H](NC(=O)[C@H](Cc1ccccc1)NC(=O)[C@@H](NC(=O)CNC(=O)[C@H](CCC(=O)O)NC(=O)C(C)(C)NC(=O)[C@@H](N)Cc1ccc(O)cc1)[C@@H](C)O)[C@@H](C)CC)[C@@H](C)CC)C(=O)N[C@@H](CC(=O)O)C(=O)N[C@@H](CCCCN)C(=O)N[C@H](C(=O)N[C@@H](Cc1c[nH]cn1)C(=O)N[C@@H](CCC(N)=O)C(=O)N[C@@H](CCC(N)=O)C(=O)N[C@@H](CC(=O)O)C(=O)N[C@@H](Cc1ccccc1)C(=O)N[C@H](C(=O)N[C@@H](CC(N)=O)C(=O)N[C@@H](Cc1c[nH]c2ccccc12)C(=O)N[C@@H](CC(C)C)C(=O)N[C@@H](CC(C)C)C(=O)N[C@@H](C)C(=O)N[C@@H](CCC(N)=O)C(=O)N[C@@H](CCCCN)C(N)=O)C(C)C)[C@@H](C)CC [Example 33, (Aib^2, 11, Nle^14)hGIP(1-30)-NH2] (H-Y[Aib]EGTFISDY[Aib]IA[Nle]DKIHQQDFVNWLLAQK-NH2; N-terminus assumed)
half-life at 0.1 mg/ml [1]: 34 h | half-life at 0.1 mg/ml [2]: > 48 h

CC[C@H](C)[C@H](NC(=O)[C@H](CCCCN)NC(=O)[C@H](CC(=O)O)NC(=O)[C@H](CCSC)NC(=O)[C@H](C)NC(=O)C1(NC(=O)[C@H](CO)NC(=O)[C@H](Cc2ccc(O)cc2)NC(=O)[C@H](CC(=O)O)NC(=O)[C@H](CO)NC(=O)[C@@H](NC(=O)[C@H](Cc2ccccc2)NC(=O)[C@@H](NC(=O)CNC(=O)[C@H](CCC(=O)O)NC(=O)C(C)(C)NC(=O)[C@@H](N)Cc2ccc(O)cc2)[C@@H](C)O)[C@@H](C)CC)CCCC1)C(=O)N[C@@H](Cc1c[nH]cn1)C(=O)N[C@@H](CCC(N)=O)C(=O)N[C@@H](CCC(N)=O)C(=O)N[C@@H](CC(=O)O)C(=O)N[C@@H](Cc1ccccc1)C(=O)N[C@H](C(=O)N[C@@H](CC(N)=O)C(=O)N[C@@H](Cc1c[nH]c2ccccc12)C(=O)N[C@@H](CC(C)C)C(=O)N[C@@H](CC(C)C)C(=O)N[C@@H](C)C(=O)N[C@@H](CCC(N)=O)C(=O)N[C@@H](CCCCN)C(N)=O)C(C)C [Example 13, (Aib^2, A5c^12)hGIP(1-30)-NH2] (H-Y[Aib]EGTFISDYS[Ac5c]AMDKIHQQDFVNWLLAQK-NH2; N-terminus assumed)
half-life at 0.1 mg/ml [1]: > 48 h | half-life at 0.1 mg/ml [2]: 35.4 h

Y[Aib]EGTF[Ac6c]SDYSIAMDKIHQQDFVNWLLAQKGKKNDWKHNC(X1)TQ-OH [Example 78, [Aib^2, A6c^7, Cys(Psu)^40]hGIP(1-42)-OH]
half-life at 0.1 mg/ml [1]: 11.2 h | half-life at 0.1 mg/ml [2]: 10.1 h

CC[C@H](C)[C@H](NC(=O)[C@H](CO)NC(=O)[C@H](Cc1ccc(O)cc1)NC(=O)[C@H](CC(=O)O)NC(=O)[C@H](CO)NC(=O)[C@@H](NC(=O)[C@H](Cc1ccccc1)NC(=O)[C@@H](NC(=O)CNC(=O)[C@@H]1CCCCN1C(=O)[C@H](C)NC(=O)[C@@H](N)Cc1ccc(O)cc1)[C@@H](C)O)[C@@H](C)CC)C(=O)N[C@@H](C)C(=O)NC1(C(=O)N[C@@H](CC(=O)O)C(=O)N[C@@H](CCCCN)C(=O)N[C@H](C(=O)N[C@@H](Cc2c[nH]cn2)C(=O)N[C@@H](CCC(N)=O)C(=O)N[C@@H](CCC(N)=O)C(=O)N[C@@H](CC(=O)O)C(=O)N[C@@H](Cc2ccccc2)C(=O)N[C@H](C(=O)N[C@@H](CC(N)=O)C(=O)N[C@@H](Cc2c[nH]c3ccccc23)C(=O)N[C@@H](CC(C)C)C(=O)N[C@@H](CC(C)C)C(=O)N[C@@H](C)C(=O)N[C@@H](CCC(N)=O)C(=O)N[C@@H](CCCCN)C(=O)NCC(=O)N[C@@H](CCCCN)C(=O)N[C@@H](CCCCN)C(=O)N[C@@H](CC(N)=O)C(=O)N[C@@H](CC(=O)O)C(=O)N[C@@H](Cc2c[nH]c3ccccc23)C(=O)N[C@@H](CCCCN)C(=O)N[C@@H](Cc2c[nH]cn2)C(=O)N[C@@H](CC(N)=O)C(=O)N[C@H](C(=O)N[C@H](C(=O)N[C@@H](CCC(N)=O)C(=O)O)[C@@H](C)O)[C@@H](C)CC)C(C)C)[C@@H](C)CC)CCCCC1 [Example 72, (hPro^3, A6c^14)hGIP(1-42)-OH]
half-life at 0.1 mg/ml [1]: 0.45 h | half-life at 0.1 mg/ml [2]: 10.7 h

YA[Pip]GTFISDYSI[Aib][Nle]DKIHQQDFVNWLLAQKGKKNDWKHNITQ-OH [Example 63, (hPro^3, Aib^13, Nle^14)hGIP(1-42)-OH]
half-life at 0.1 mg/ml [1]: 1.4 h | half-life at 0.1 mg/ml [2]: 14.2 h

YA[ΔPro]GTFISDYSI[Aib][Nle]DKIHQQDFVNWLLAQKGKKNDWKHNITQ-OH [Example 64, (Dhp^3, Aib^13, Nle^14)hGIP(1-42)-OH]
Rat Plasma T½ [1]: 47.5 h | Human Plasma T½ [2]: 41.3 h

H-[NMeY][Aib]EGTFISDY[Ac5c]IA[Nle]DKIHQQDFVNWLLAQKGKKNDWKHNITQ-OH [Example 113, (NMe-Tyr^1, Aib^2, A5c^11, Nle^14)hGIP(1-42)-OH]
half-life at 0.1 mg/ml [1]: 27 h | half-life at 0.1 mg/ml [2]: 61.9 h

YA[Tic]GTFISDY[Ac5c]IA[Ac6c]DKIHQQDFVNWLLAQKGKKNDWKHNITQ-OH [Example 89, (Tic^3, A5c^11, A6c^14)hGIP(1-42)-OH]
half-life at 0.1 mg/ml [1]: 11.8 h | half-life at 0.1 mg/ml [2]: > 48 h

CC[C@H](C)[C@H](NC(=O)[C@H](CCCCN)NC(=O)[C@H](CC(=O)O)NC(=O)[C@H](CCSC)NC(=O)[C@H](C)NC(=O)[C@@H](NC(=O)C(C)(C)NC(=O)[C@H](Cc1ccc(O)cc1)NC(=O)[C@H](CC(=O)O)NC(=O)[C@H](CO)NC(=O)[C@@H](NC(=O)[C@H](Cc1ccccc1)NC(=O)[C@@H](NC(=O)CNC(=O)[C@H](CCC(=O)O)NC(=O)C(C)(C)NC(=O)[C@@H](N)Cc1ccc(O)cc1)[C@@H](C)O)[C@@H](C)CC)[C@@H](C)CC)C(=O)N[C@@H](Cc1c[nH]cn1)C(=O)N[C@@H](CCC(N)=O)C(=O)N[C@@H](CCC(N)=O)C(=O)N[C@@H](CC(=O)O)C(=O)N[C@@H](Cc1ccccc1)C(=O)N[C@H](C(=O)N[C@@H](CC(N)=O)C(=O)N[C@@H](Cc1c[nH]c2ccccc12)C(=O)N[C@@H](CC(C)C)C(=O)N[C@@H](CC(C)C)C(=O)N[C@@H](C)C(=O)N[C@@H](CCC(N)=O)C(=O)N[C@@H](CCCCN)C(N)=O)C(C)C [Example 19, (Aib^2, 11)hGIP(1-30)-NH2] (H-Y[Aib]EGTFISDY[Aib]IAMDKIHQQDFVNWLLAQK-NH2; N-terminus assumed)
half-life at 0.1 mg/ml [1]: > 48 h | half-life at 0.1 mg/ml [2]: 27.2 h

Y[Aib]EGTF[Ac6c]SDYSIAMDKIHQQDFVNWLLAQK[Aib]KKNDWKHNITQ-OH [Example 22, (Aib^2, 31, A6c^7)hGIP(1-42)-OH]
half-life at 0.1 mg/ml [1]: 14.2 h | half-life at 0.1 mg/ml [2]: > 48 h

Y[Aib]EGTF[Ac6c]SDYSIA[Nle]DKIHQQDFVNWLLAQKGKKNDWKHNITQ-OH [Example 55, (Aib^2, A6c^7, Nle^14)hGIP(1-42)-OH]
half-life at 0.1 mg/ml [1]: 11.7 h | half-life at 0.1 mg/ml [2]: 8.8 h
